Measurements from article PMC4578337, “New depsidones and isoindolinones from the mangrove endophytic fungus Meyerozyma guilliermondii (HZ-Y2) isolated from the South China Sea” (Beilstein Journal of Organic Chemistry, 2015).

Legend:
[1] = biological target: T1, α-glucosidase (Saccharomyces cerevisiae, UniProt P53341); test: kinetic analysis of the inhibition of α-glucosidase; type: biochemical; conditions: Figure 4
Experimental: (§1) Biological assays. The assays for α-glucosidase and MptpB inhibition inhibitory activities were carried out as described previously.

[2] = biological target: T1, α-glucosidase; test: α-glucosidase inhibitory activity assay; type: biochemical; conditions: qualitative statement
Experimental: as §1

T1 sequence (P53341 whole entry): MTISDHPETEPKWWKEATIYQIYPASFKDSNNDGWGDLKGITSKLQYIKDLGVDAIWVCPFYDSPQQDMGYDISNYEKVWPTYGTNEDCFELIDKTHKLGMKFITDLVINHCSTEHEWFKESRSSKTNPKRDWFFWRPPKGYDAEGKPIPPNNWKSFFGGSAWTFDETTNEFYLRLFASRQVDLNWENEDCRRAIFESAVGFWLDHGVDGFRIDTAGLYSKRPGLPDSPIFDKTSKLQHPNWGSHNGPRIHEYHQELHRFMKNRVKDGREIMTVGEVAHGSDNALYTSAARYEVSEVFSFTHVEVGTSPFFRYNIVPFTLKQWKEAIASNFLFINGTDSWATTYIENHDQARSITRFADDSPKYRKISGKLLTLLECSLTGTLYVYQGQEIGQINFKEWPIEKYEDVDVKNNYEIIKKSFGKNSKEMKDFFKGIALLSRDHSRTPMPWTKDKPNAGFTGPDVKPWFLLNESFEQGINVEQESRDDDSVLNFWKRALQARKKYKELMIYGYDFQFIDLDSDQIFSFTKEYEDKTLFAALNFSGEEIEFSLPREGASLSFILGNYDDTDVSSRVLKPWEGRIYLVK

Row | Compound | type of α-glucosidase inhibition (kinetic studies) [1] | α-glucosidase inhibitory activity (in words) [2]
1 | Cc1cc(O)c(C)c2c1Oc1c(O)c(O)cc(C)c1C(=O)O2 [Compound 2, Botryorhodine F] | noncompetitive inhibitors | 
2 | Cc1cc(O)cc2c1Oc1c(CO)c(O)cc(C)c1C(=O)O2 [Compound 6, botryorhodine D] | noncompetitive inhibitors | 
3 | O=C(O)CCCCN1Cc2c(O)cc(O)cc2C1=O [Compound 7, Meyeroguilline A] |  | promising α-glucosidase inhibitory activity
4 | O=C1NCc2c(O)cc(O)cc21 [Compound 8, 4,6-dihydroxy-2,3-dihydro-1H-isoindol-1-one] |  | moderate to weak activities
5 | O=C1NC(=O)c2c(O)cc(O)cc21 [Compound 10, 4,6-dihydroxy-1H-isoindole-1,3(2H)-dione] |  | moderate to weak activities
